78 compounds from PubChem BioAssay AID1117325 (Cheminformatics & Chemogenomics Research Group (CCRG), …, 2015) can be followed below.

Each structure is given as a SMILES string. pIC50: −log10 of the molar value. Where “and” joins values, the source holds several entries; their conditions need not be identical. Identical values can stand only once. Calls of active or inactive are those of the source. The rule behind the calls is not given here. *1 amine or outer side, *2 acyl side, *3 side chain or, on linkers, in order; H or OH if unused. Where a SMILES comes first, the peptide text is derived from it. Bridges are numbered along the chain shown (N, C = ends). Roman numbers before positions name the chains, in order. [ ]: non-standard residue; d: D form. Actinocin(9to1) = Cc1c2oc3c(C)ccc(C(=O)[*:1])c3nc-2c(C(=O)[*:2])c(N)c1=O; NMeV = CN[C@H](C(=O)O)C(C)C; Sar = CNCC(=O)O Some results are limits rather than exact numbers.

The subject of the assay is C2C12 WNT3A-conditioned, nuclear beta-catenin. Briefly: activation of β-catenin in the nucleus of C2C12, concentration-response, cell-based, Wnt-3a CM-treated, half-maximal inhibitory concentration (AID 1117325).
With `O=c1c(-c2ccccc2)c1-c1ccccc1`, the IC50 – broadly, the concentration at which inhibition is half-maximal – was > 20 µM (inactive).

On to `CC[C@@]1(O)C(=O)OCc2c1cc1n(c2=O)Cc2cc3c(CN(C)C)c(O)ccc3nc2-1`, for which the negative logarithm of the IC50 (pIC50) (usually the IC50 on a negative log10 scale, so that one unit is a factor of ten) is 6.87.

As to `CCCCCCCCCCCCCCC[C@H](O)[C@@H](N)CO`, the IC50 is > 20 µM (inactive).

On to `Cc1nc2ccc(CN(C)c3ccc(C(=O)N[C@@H](CCC(=O)O)C(=O)O)s3)cc2c(=O)[nH]1`, for which the pIC50 was 7.90.

With `CC(C)C[C@H](NC(=O)[C@H](CCc1ccccc1)NC(=O)CN1CCOCC1)C(=O)N[C@@H](Cc1ccccc1)C(=O)N[C@@H](CC(C)C)C(=O)[C@@]1(C)CO1`, the pIC50 is 7.53.

In the case of `Oc1c(Cl)cc(Cl)cc1Sc1cc(Cl)cc(Cl)c1O`, the IC50 is > 20 µM (inactive).

On to `CCCCCCCCCCCC(=O)[O][Sn]([CH2]CCC)([CH2]CCC)[O]C(=O)CCCCCCCCCCC`, for which the IC50 was > 20 µM (inactive).

With `O[C@@H](c1cc(C(F)(F)F)nc2c(C(F)(F)F)cccc12)[C@H]1CCCCN1`, the IC50 is > 20 µM (inactive).

Take `COC(=O)Nc1nc2ccc(C(=O)c3ccccc3)cc2[nH]1`: the negative logarithm of the IC50 (pIC50) is 5.76.

For `CN1CC[C@H](c2c(O)cc(O)c3c(=O)cc(-c4ccccc4Cl)oc23)[C@H](O)C1`, the pIC50 was 6.72.

For `Cc1cc(CC(C)CC(C)(C)C)n(O)c(=O)c1` (stereo not drawn), the pIC50 was 6.23.

As for `CC[C@]1(O)C[C@H]2CN(CCc3c([nH]c4ccccc34)[C@@](C(=O)OC)(c3cc4c(cc3OC)N(C=O)[C@H]3[C@@](O)(C(=O)OC)[C@H](OC(C)=O)[C@]5(CC)C=CCN6CC[C@]43[C@@H]65)C2)C1`, the pIC50 is 8.40.

As for `C=CC(=O)Nc1cc2c(Nc3ccc(F)c(Cl)c3)ncnc2cc1OCCCN1CCOCC1`, the negative logarithm of the IC50 (pIC50) is 6.00.

With `CCCN(CCC)C(=O)C(CCC(=O)OCCCN1CCN(CCOC(=O)Cc2c(C)n(C(=O)c3ccc(Cl)cc3)c3ccc(OC)cc23)CC1)NC(=O)c1ccccc1` (stereo not drawn), the IC50 is > 20 µM (inactive).

For `CCN(CC)CCNc1ccc(CO)c2sc3ccccc3c(=O)c12`, the IC50 is > 20 µM (inactive).

For the compound `COc1cccc2c1C(=O)c1c(O)c3c(c(O)c1C2=O)C[C@@](O)(C(C)=O)C[C@@H]3O[C@H]1C[C@H](N)[C@H](O)[C@H](C)O1`, the pIC50 is 6.43.

For the compound `Cc1cc(O)c2ccccc2c1O`, the negative-log IC50 (pIC50) is 5.36.

`NC(=NCCCCCCN=C(N)/N=C(\N)Nc1ccc(Cl)cc1)/N=C(\N)Nc1ccc(Cl)cc1`: the IC50 was > 20 µM (inactive).

In the case of `CCCCCCCCCCCCCC[N+](C)(C)Cc1ccccc1`, the IC50 was > 20 µM (inactive).

Turning to `O=C1c2c(O)ccc(O)c2C(=O)c2c(NCCNCCO)ccc(NCCNCCO)c21`, the negative logarithm of the IC50 (pIC50) was 7.52.

Regarding `COCc1c(C(C)C)nc(C(C)C)c(/C=C/[C@@H](O)C[C@@H](O)CC(=O)O)c1-c1ccc(F)cc1`, the IC50 is 6.67 µM (inactive).

On to `CCCCCCNC(=O)n1cc(F)c(=O)[nH]c1=O`, for which the pIC50 was 5.30.

As to `CC(=O)Oc1ccc(C2(c3ccc(OC(C)=O)cc3)Oc3ccccc3NC2=O)cc1`, the IC50 is > 20 µM (inactive).

Turning to `CCCOc1ccc2nc(NC(=O)OC)[nH]c2c1`, the pIC50 is 6.44.

As for `Cc1ccc2nc(N)[nH]c(=O)c2c1Sc1ccncc1`, the negative-log IC50 (pIC50) was 6.15.

In the case of `COC(=O)c1nc(Cl)c(Cl)nc1N`, the pIC50 is 6.51.

For the compound `Clc1cc(Cl)c(OCC#CI)cc1Cl`, the IC50 is > 20 µM (inactive).

Take `C[C@@]12C(=O)OC(=O)[C@]1(C)C1CCC2O1`: the IC50 is > 20 µM (inactive).

Consider `OCCN1CCN(CCCN2c3ccccc3Sc3ccc(Cl)cc32)CC1`, for which the IC50 is > 20 µM (inactive).

For `CC(C)(C)C(=O)OCOP(=O)(COCCn1cnc2c(N)ncnc21)OCOC(=O)C(C)(C)C`, the pIC50 is 6.15.

As for `Cc1c2oc3c(C)ccc(C(=O)N[C@@H]4C(=O)N[C@H](C(C)C)C(=O)N5CCC[C@H]5C(=O)N(C)CC(=O)N(C)[C@@H](C(C)C)C(=O)O[C@@H]4C)c3nc-2c(C(=O)N[C@@H]2C(=O)N[C@H](C(C)C)C(=O)N3CCC[C@H]3C(=O)N(C)CC(=O)N(C)[C@@H](C(C)C)C(=O)O[C@@H]2C)c(N)c1=O` (I: T[dV]P[Sar][NMeV] / II: T[dV]P[Sar][NMeV]; ester I:1-I:C, II:1-II:C; linker I:N-II:N via Actinocin(9to1)), the pIC50 is 7.43.

In the case of `Cc1ccc2c(Br)cc(Br)c(O)c2n1`, the IC50 is > 20 µM (inactive).

With `COC(=O)[C@H]1[C@H]2C[C@@H]3c4[nH]c5cc(OC)ccc5c4CCN3C[C@H]2C[C@@H](OC(=O)/C=C/c2ccc(O)c(OC)c2)[C@@H]1OC`, the IC50 was > 20 µM (inactive).

For `COc1cc(NCc2ccc3nc(N)nc(N)c3c2C)cc(OC)c1OC`, the negative-log IC50 (pIC50) was 8.48.

Consider `CC(=O)[C@]1(O)Cc2c(O)c3c(c(O)c2[C@@H](O[C@H]2C[C@H](N)[C@H](O)[C@H](C)O2)C1)C(=O)c1ccccc1C3=O`, for which the pIC50 is 7.00.

For the compound `Cc1cc2c(C(C)C)c(O)c(O)c(C=O)c2c(O)c1-c1c(C)cc2c(C(C)C)c(O)c(O)c(C=O)c2c1O`, the negative logarithm of the IC50 (pIC50) is 5.46.

As for `COc1cc(C=C2CCC/C(=C\c3ccc(O)c(OC)c3)C2=O)ccc1O`, the IC50 is 5.04 µM (inactive).

In the case of `COc1cc([C@@H]2c3cc4c(cc3[C@@H](O[C@@H]3O[C@@H]5CO[C@@H](C)O[C@@H]5[C@H](O)[C@@H]3O)[C@H]3COC(=O)[C@H]23)OCO4)cc(OC)c1O`, the IC50 was > 20 µM (inactive).

For the compound `COc1cccc2c1C(=O)c1c(O)c3c(c(O)c1C2=O)C[C@@](O)(C(=O)CO)CC3OC1CC(N2CCOC(OC)C2)C(O)C(C)O1` (stereo partly drawn), the pIC50 was 7.87.

On to `CCc1nc(N)nc(N)c1-c1ccc(Cl)cc1`, for which the negative-log IC50 (pIC50) was 6.07.

As for `O=[N+]([O-])C(Br)(CO)CO`, the IC50 was > 20 µM (inactive).

`O=C(CCl)c1ccc(Cl)cc1Cl`: the pIC50 is 6.43.

In the case of `CN1C[C@H](CNC(=O)OCc2ccccc2)C[C@@H]2c3cccc4c3c(cn4C)C[C@H]21`, the IC50 is > 20 µM (inactive).

`Cc1cc(=O)c2c(O)c3c(O)cc(=O)c4c3c3c(cc(O)c1c23)C(C)(C)C=4O`: the pIC50 was 5.97.

`CN(Cc1cnc2nc(N)nc(N)c2n1)c1ccc(C(=O)N[C@@H](CCC(=O)O)C(=O)O)cc1`: the pIC50 is 7.58.

For `CCCCCCCCCCCCCC[N+](C)(C)C`, the IC50 is > 20 µM (inactive).

Consider `Cc1nc(N)nc(N)c1-c1ccc(Cl)c(Cl)c1`, for which the pIC50 was 7.30.

In the case of `O=C1C2CC=CCC2C(=O)N1SC(Cl)(Cl)Cl` (stereo not drawn), the IC50 is > 20 µM (inactive).

With `Cc1ccccc1C(=O)Nc1ccc(C(=O)N2CCCC(N(C)C)c3ccccc32)cc1` (stereo not drawn), the pIC50 was 5.34.

For the compound `CC[C@@]1(O)C(=O)OCc2c1cc1n(c2=O)Cc2c-1nc1ccccc1c2/C=N/OC(C)(C)C`, the pIC50 is 5.94.

Turning to `C[n+]1c2cc(N)ccc2cc2ccc(N)cc21` (tested in a mixture with another compound), the IC50 is > 20 µM (inactive).

Turning to `CCCSc1ccc2nc(NC(=O)OC)[nH]c2c1`, the negative logarithm of the IC50 (pIC50) is 5.89.

In the case of `C#C[C@]1(O)CC[C@H]2[C@@H]3CCc4cc(OC5CCCC5)ccc4[C@H]3CC[C@@]21C`, the IC50 was > 20 µM (inactive).

On to `COC(=O)Nc1nc2ccc(S(=O)c3ccccc3)cc2[nH]1` (stereo not drawn), for which the pIC50 is 6.33.

Turning to `O=C1OC2(c3cc(Br)c(O)cc3Oc3c2cc(Br)c(O)[c]3[Hg])c2ccccc21` (stereo not drawn), the IC50 was 16.9 µM (inactive).

Take `O=C1C(I)=CC(=C(c2cc(I)c(O)c(I)c2)c2ccccc2C(=O)O)C=C1I`: the IC50 is > 20 µM (inactive).

Regarding `COc1cc([C@@H]2c3cc4c(cc3[C@H](O)[C@H]3COC(=O)[C@H]23)OCO4)cc(OC)c1OC`, the pIC50 is 7.88.

Turning to `COC(=O)Nc1nc2ccc(C(=O)C3CC3)cc2[nH]1`, the pIC50 is 6.46.

Regarding `Nc1ccc2cc3ccc(N)cc3nc2c1`, the IC50 was 5.99 µM (inactive).

Regarding `CCCCc1ccc2nc(NC(=O)OC)[nH]c2c1`, the negative logarithm of the IC50 (pIC50) is 7.47.

With `CCCCCCCCCCCCNCCNCCNCC(=O)O`, the IC50 is > 20 µM (inactive).

In the case of `O=C(Nc1ccc([N+](=O)[O-])cc1Cl)c1cc(Cl)ccc1O`, the pIC50 is 5.80.

As to `CCCCC1C(=O)N(c2ccccc2)N(c2ccc(O)cc2)C1=O` (stereo not drawn), the IC50 is > 20 µM (inactive).

`[O-][n+]1ccccc1SSc1cccc[n+]1[O-]`: the negative-log IC50 (pIC50) is 6.00.

Consider `CCC1=C[C@@H]2CN(C1)Cc1c([nH]c3ccccc13)[C@@](C(=O)OC)(c1cc3c(cc1OC)N(C)[C@H]1[C@@](O)(C(=O)OC)[C@H](OC(C)=O)[C@]4(CC)C=CCN5CC[C@]31[C@@H]54)C2`, for which the negative-log IC50 (pIC50) is 8.05.

Take `CN(C)c1ccc(C(=C2C=CC(=[N+](C)C)C=C2)c2ccccc2)cc1`: the IC50 is > 20 µM (inactive).

For the compound `c1ccc2c(c1)Sc1ccccc1N2CC1CN2CCC1CC2` (stereo not drawn), the IC50 was > 20 µM (inactive).

`Oc1c(I)cc(Cl)c2cccnc12`: the IC50 was > 20 µM (inactive).

`C=C(C)[C@H]1Cc2c(ccc3c2O[C@@H]2COc4cc(OC)c(OC)cc4[C@@H]2C3=O)O1`: the negative-log IC50 (pIC50) is 5.52.

As for `COc1cccc2c1C(=O)c1c(O)c3c(c(O)c1C2=O)C[C@@](O)(C(=O)CO)C[C@@H]3O[C@H]1C[C@H](N)[C@H](O[C@@H]2CCCCO2)[C@H](C)O1`, the IC50 was > 20 µM (inactive).

In the case of `CC(=O)O[C@@]12CO[C@@H]1C[C@H](O)[C@@]1(C)C(=O)[C@H](O)C3=C(C)[C@@H](OC(=O)[C@H](O)[C@@H](NC(=O)OC(C)(C)C)c4ccccc4)C[C@@](O)([C@@H](OC(=O)c4ccccc4)[C@H]21)C3(C)C`, the negative logarithm of the IC50 (pIC50) was 7.19.

With `Cc1nc(Nc2ncc(C(=O)Nc3c(C)cccc3Cl)s2)cc(N2CCN(CCO)CC2)n1`, the negative logarithm of the IC50 (pIC50) was 6.98.

With `CN(C)C(=S)SSC(=S)N(C)C`, the IC50 is > 20 µM (inactive).

For `Cc1cc(C2CCCCC2)n(O)c(=O)c1`, the IC50 is > 20 µM (inactive).

`CSc1ccc2c(c1)C(N1CCN(C)CC1)Cc1ccccc1S2` (stereo not drawn): the IC50 was > 20 µM (inactive).

For `CC[C@]1(O)C[C@@H]2CN(CCc3c([nH]c4ccccc34)[C@@](C(=O)OC)(c3cc4c(cc3OC)N(C)[C@H]3[C@@](O)(C(=O)OC)[C@H](OC(C)=O)[C@]5(CC)C=CCN6CC[C@]43[C@@H]65)C2)C1`, the negative logarithm of the IC50 (pIC50) is 8.46 and 8.24.

In the case of `COc1ccc2cc1Oc1ccc(cc1)C[C@H]1c3c(cc4c(c3Oc3cc5c(cc3OC)CCN(C)[C@@H]5C2)OCO4)CCN1C`, the IC50 was 5.63 µM (inactive).

In the case of `Cc1ccc([N+](=O)[O-])[c]2c1[O][Hg]2`, the pIC50 was 5.82.
